The structures appear in SMILES notation.

For the first assay, the target named is T1, soluble guanylate cyclase (sGC) (Bos taurus, UniProt P16068).
T1 construct: The sGC which was employed had been isolated from bovine lung; from tissue; host or cells: bovine lung
T1 sequence (P16068 1-619): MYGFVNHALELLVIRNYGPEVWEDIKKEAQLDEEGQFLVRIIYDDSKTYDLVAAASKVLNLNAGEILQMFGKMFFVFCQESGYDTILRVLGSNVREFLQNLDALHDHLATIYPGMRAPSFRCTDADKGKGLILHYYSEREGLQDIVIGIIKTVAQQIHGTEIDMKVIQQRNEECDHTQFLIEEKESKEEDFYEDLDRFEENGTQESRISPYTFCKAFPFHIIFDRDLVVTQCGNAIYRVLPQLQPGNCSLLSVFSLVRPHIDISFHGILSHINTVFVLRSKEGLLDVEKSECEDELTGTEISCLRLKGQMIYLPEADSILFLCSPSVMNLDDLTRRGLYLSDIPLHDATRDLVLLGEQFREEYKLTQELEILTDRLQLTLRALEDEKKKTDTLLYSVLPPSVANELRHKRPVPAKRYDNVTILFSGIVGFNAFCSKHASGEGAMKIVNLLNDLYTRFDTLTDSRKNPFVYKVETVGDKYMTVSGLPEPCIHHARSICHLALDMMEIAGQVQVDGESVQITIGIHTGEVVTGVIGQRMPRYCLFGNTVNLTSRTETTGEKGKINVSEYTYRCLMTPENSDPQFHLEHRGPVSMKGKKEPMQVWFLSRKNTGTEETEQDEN
T1 sequence (P19687 1-691 partner): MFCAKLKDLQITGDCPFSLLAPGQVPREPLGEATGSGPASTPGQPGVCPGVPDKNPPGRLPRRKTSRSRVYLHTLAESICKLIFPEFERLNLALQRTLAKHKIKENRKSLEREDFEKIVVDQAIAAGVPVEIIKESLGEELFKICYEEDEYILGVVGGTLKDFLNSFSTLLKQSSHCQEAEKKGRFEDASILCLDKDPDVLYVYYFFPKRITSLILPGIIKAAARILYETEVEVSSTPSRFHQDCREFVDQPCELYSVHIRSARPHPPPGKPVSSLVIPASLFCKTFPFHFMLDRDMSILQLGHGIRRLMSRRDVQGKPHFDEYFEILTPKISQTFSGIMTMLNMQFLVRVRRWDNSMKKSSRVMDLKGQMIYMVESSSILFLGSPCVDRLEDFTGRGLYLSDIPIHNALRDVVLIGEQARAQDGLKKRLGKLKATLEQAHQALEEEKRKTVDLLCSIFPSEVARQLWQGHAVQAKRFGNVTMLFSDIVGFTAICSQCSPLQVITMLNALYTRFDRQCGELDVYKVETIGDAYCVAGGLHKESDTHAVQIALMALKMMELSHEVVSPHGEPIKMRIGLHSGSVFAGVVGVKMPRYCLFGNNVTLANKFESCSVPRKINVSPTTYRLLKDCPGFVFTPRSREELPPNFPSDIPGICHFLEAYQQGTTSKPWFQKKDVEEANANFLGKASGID
Briefly: Activation of the soluble guanylate cyclase (cGMP enzyme immunoassay). In kind it is biochemical, bovine. The following applies: concentration c 5 μM; n-fold stimulation of basal enzyme activity. Here is the method:
The activation of the soluble guanylate cyclase (sGC) which catalyzes the conversion of guanosine triphosphate (GTP) into cyclic guanosine monophosphate (cGMP) and pyrophosphate, by the compounds according to the invention was quantified with the aid of an enzyme immunoassay (EIA) from Amersham. For this purpose the substances to be tested were initially incubated with sGC in microtiter plates, and the amount of the cGMP formed was then determined.
The sGC which was employed had been isolated from bovine lung (see Methods in Enzymology, Volume 195, p. 377). The test solutions (100 μl per well) contained 50 mM triethanolamine (TEA) buffer (pH 7.5), 3 mM MgCl2, 3 mM reduced glutathione (GSH), 0.1 mM GTP, 1 mM 3-isobutyl-1-methylxanthine (IBMX), suitably diluted enzyme solution and the substance to be tested or, in the control experiments, the solvent. The substances to be tested were dissolved in dimethyl sulfoxide (DMSO) and the solution was diluted with DMSO/water, so that the final concentration (c) of the substance to be tested in the test solution had the value indicated in the table. The DMSO concentration in the test solution was 5% (v/v). The reaction was initiated by addition of the sGC. The reaction mixture was incubated at 37° C. for 15 to 20 minutes and then stopped by ice-cooling and addition of the stop reagent (50 mM EDTA, pH 8.0). An aliquot of 50 μl was taken and used for determining the cGMP content using the acetylation protocol of the Amersham cGMP-EIA kit. The absorption of the samples was measured at 450 nm (reference wavelength 620 nm) in a microtiter plate reader. The cGMP concentration was determined using a standard curve which was obtained under the same test conditions. The activation of sGC by a test substance is given as the n-fold stimulation of the basal enzyme activity which was found in the control experiments (using solvent instead of test substance) (calculated using the formula n-fold stimulation=[cGMP]test substance/[cGMP]control).
As to `Cc1cc(NC(=O)c2cc(Cl)ccc2NS(=O)(=O)c2ccc(Cl)cc2)ccc1S(=O)(=O)N1CC(C)CC(C)C1` (stereo not drawn) [Example 194, 5-Chloro-2-(4-chloro-phenylsulfonylamino)-N-(4-(3,5-dimethyl-piperidine-1-sulfonyl)-3-methyl-phenyl)-benzamide], the n-fold stimulation was determined as 20.0.

The assay is the same for the next values; noted with them: concentration c 10 μM; n-fold stimulation of basal enzyme activity.
Turning to `COc1cc(NS(=O)(=O)c2ccc(Cl)s2)c(C(=O)Nc2ccc(S(=O)(=O)N(C)Cc3cccnc3)cc2)cc1OC.Cl` [Example 191, 4,5-Dimethoxy-2-(5-chloro-thiophene-2-sulfonylamino)-N-(4-(N-methyl-N-(pyridin-3-yl-methyl)=aminosulfonyl)-phenyl)-benzamide hydrochloride], the n-fold stimulation is reported as 27.5.

As for `Cc1cc(NC(=O)c2cc(Cl)ccc2NS(=O)(=O)c2ccc(Cl)cc2)ccc1S(=O)(=O)N1CCOCC1` [Example 192, 5-Chloro-2-(4-chloro-phenylsulfonylamino)-N-(4-(morpholine-4-sulfonyl)-3-methyl-phenyl)-benzamide], the n-fold stimulation is listed as 26.7.

Molecule `Cc1cc(NC(=O)c2cc(Cl)ccc2NS(=O)(=O)c2ccc(Cl)cc2)ccc1S(=O)(=O)N1C[C@@H](C)O[C@@H](C)C1` [Example 193, 5-Chloro-2-(4-chloro-phenylsulfonylamino)-N-(4-(cis-2,6-dimethyl-morpholine-4-sulfonyl)-3-methyl-phenyl)-benzamide] showed a n-fold stimulation of 31.1.

`Cc1cc(NC(=O)c2cc(Cl)ccc2NS(=O)(=O)c2ccc(Cl)cc2)ccc1S(=O)(=O)N1CCCCC1` [Example 195, 5-Chloro-2-(4-chloro-phenylsulfonylamino)-N-(4-(piperidine-1-sulfonyl)-3-methyl-phenyl)-benzamide] displayed a n-fold stimulation of 16.2.

The assay is the same for the next values; noted with them: concentration c 50 μM; n-fold stimulation of basal enzyme activity.
In turn, `Cc1nn(C)c(Cl)c1S(=O)(=O)Nc1ccc(Cl)cc1C(=O)Nc1ccc(S(=O)(=O)N2CCOCC2)cc1` [Example 130, 5-Chloro-2-(5-chloro-1,3-dimethyl-pyrazole-4-sulfonyl-amino)-N-(4-(morpholine-4-sulfonyl)-phenyl)-benzamide] registered a n-fold stimulation of 35.3.

For the molecule `O=C(Nc1ccc(S(=O)(=O)N2CCOCC2)cc1)c1cc(Cl)ccc1NS(=O)(=O)c1cccnc1` [Example 132, 5-Chloro-N-(4-(morpholine-4-sulfonyl)-phenyl)-2-(pyridine-3-sulfonylamino)-benzamide], the n-fold stimulation was determined as 9.9.

As to `CCS(=O)(=O)Nc1ccc(Cl)cc1C(=O)Nc1ccc(S(=O)(=O)N2CCOCC2)cc1` [Example 134, 5-Chloro-2-(ethylsulfonylamino)-N-(4-(morpholine-4-sulfonyl)-phenyl)-benzamide], the n-fold stimulation is 7.2.

In the case of `O=C(Nc1ccc(S(=O)(=O)N2CCOCC2)cc1)c1cc(Cl)ccc1NS(=O)(=O)c1cccs1` [Example 136, 5-Chloro-N-(4-(morpholine-4-sulfonyl)-phenyl)-2-(thiophene-2-sulfonylamino)-benzamide], the n-fold stimulation is 24.2.

The molecule `O=C(Nc1ccc(S(=O)(=O)N2CCOCC2)cc1)c1cc(Cl)ccc1NS(=O)(=O)c1ccc(C(F)(F)F)cc1` [Example 137, 5-Chtoro-N-(4-(morpholine-4-sulfonyl)-phenyl)-2-(4-trifluoromethyl-phenylsulfonylamino)-benzamide] yielded a n-fold stimulation of 4.6.

For `O=C(Nc1ccc(S(=O)(=O)N2CCOCC2)cc1)c1cc(Cl)ccc1NS(=O)(=O)c1cc(C(F)(F)F)cc(C(F)(F)F)c1` [Example 139, 2-(3,5-Bis-trifluoromethyl-phenylsulfonylamino)-5-chloro-N-(4-(morpholine-4-sulfonyl)-phenyl)-benzamide], the n-fold stimulation is 21.9.

In the case of `O=C(Nc1ccc(S(=O)(=O)N2CCOCC2)cc1)c1cc(Cl)ccc1NS(=O)(=O)c1cc(Br)c(Br)s1` [Example 145, 5-Chloro-2-(4,5-dibromo-thiophene-2-sulfonylamino)-N-(4-(morpholine-4-sulfonyl)-phenyl)-benzamide], the n-fold stimulation is 8.

`O=C(Nc1ccc(S(=O)(=O)N2CCOCC2)cc1)c1cc(Cl)ccc1NS(=O)(=O)c1ccc(F)cc1` [Example 146, 5-Chloro-2-(4-fluoro-phenylsulfonylamino)-N-(4-(morpholine-4-sulfonyl)-phenyl)-benzamide] gave a n-fold stimulation of 10.2.

Turning to `COc1ccc(S(=O)(=O)Nc2ccc(Cl)cc2C(=O)Nc2ccc(S(=O)(=O)N3CCOCC3)cc2)cc1Cl` [Example 148, 5-Chloro-2-(3-chloro-4-methoxy-phenylsulfonylamino)-N-(4-(morpholine-4-sulfonyl)-phenyl)-benzamide], the n-fold stimulation came to 15.5.

Molecule `Cc1cc(C)c(S(=O)(=O)Nc2ccc(Cl)cc2C(=O)Nc2ccc(S(=O)(=O)N3CCOCC3)cc2)c(C)c1` [Example 150, 5-Chloro-N-(4-(morpholine-4-sulfonyl)-phenyl)-2-(2,4,6-trimethyl-phenylsulfonylamino)-benzamide] returned a n-fold stimulation of 15.3.

Molecule `O=C(Nc1ccc(S(=O)(=O)N2CCOCC2)cc1)c1cc(Cl)ccc1NS(=O)(=O)c1cccc([N+](=O)[O-])c1` [Example 151, 5-Chloro-N-(4-(morpholine-4-sulfonyl)-phenyl)-2-(3-nitro-phenylsulfonylamino)-benzamide] showed a n-fold stimulation of 19.9.

In turn, `O=C(Nc1ccc(S(=O)(=O)N2CCOCC2)cc1)c1cc(Cl)ccc1NS(=O)(=O)CC(F)(F)F` [Example 155, 5-Chloro-N-(4-(morpholine-4-sulfonyl)-phenyl)-2-(2,2,2-trifluoro-ethylsulfonylamino)-benzamide] gave a n-fold stimulation of 7.8.

Molecule `CCCCS(=O)(=O)Nc1ccc(Cl)cc1C(=O)Nc1ccc(S(=O)(=O)N2CCOCC2)cc1` [Example 156, 2-(Butyl-sulfonylamino)-5-chloro-N-(4-(morpholine-4-sulfonyl)-phenyl)-benzamide] yielded a n-fold stimulation of 7.8.

Regarding `O=C(Nc1ccc(S(=O)(=O)N2CCOCC2)cc1)c1cc(Cl)ccc1NS(=O)(=O)c1cccc(C(F)(F)F)c1` [Example 157, 5-Chloro-N-(4-(morpholine-4-sulfonyl)-phenyl)-2-(3-trifluoromethyl-phenylsulfonylamino)-benzamide], the n-fold stimulation is listed as 4.6.

Molecule `COc1cc(NS(=O)(=O)c2ccc(Cl)cc2)c(C(=O)Nc2ccc(S(=O)(=O)N3CCS(=O)(=O)CC3)cc2)cc1OC` [Example 175, 2-(4-Chloro-phenylsulfonylamino)-4,5-dimethoxy-N-(4-(1,1-dioxo-thiomorpholine-4-sulfonyl)-phenyl)-benzamide] gave a n-fold stimulation of 21.1.

For the molecule `COc1cc(NS(=O)(=O)c2ccc(Cl)cc2)c(C(=O)Nc2ccc(S(=O)(=O)N3CC[S+]([O-])CC3)cc2)cc1OC` [Example 176, 2-(4-Chloro-phenylsulfonylamino)-4,5-dimethoxy-N-(4-(1-oxo-thiomorpholine-4-sulfonyl)-phenyl)-benzamide], the n-fold stimulation was 13.9.

Source of the values: patent US8541410B2, “Sulfur substituted sulfonylaminocarboxylic acid N-arylamides, their preparation, their use and pharmaceutical preparations comprising them” (Sanofi-aventis Deutschland GmbH, priority 1998, dated 2013).
